Laboratory results reported in publication PMC4979471 (Cell Death Discovery, 2015).
Like-named read-outs stand apart in the source and are kept apart here.

Tests used:
Assay in all cases: Kinase selectivity, P33-radiolabeled assay
Assay type in all cases: biochemical
Details in all cases: 10 μM ATP
CTK/MATK = molecular target: T1, CTK/MATK (Homo sapiens, UniProt P42679)
T1 construct: purchased Reaction Biology Corp
T1 sequence (P42679 1-507): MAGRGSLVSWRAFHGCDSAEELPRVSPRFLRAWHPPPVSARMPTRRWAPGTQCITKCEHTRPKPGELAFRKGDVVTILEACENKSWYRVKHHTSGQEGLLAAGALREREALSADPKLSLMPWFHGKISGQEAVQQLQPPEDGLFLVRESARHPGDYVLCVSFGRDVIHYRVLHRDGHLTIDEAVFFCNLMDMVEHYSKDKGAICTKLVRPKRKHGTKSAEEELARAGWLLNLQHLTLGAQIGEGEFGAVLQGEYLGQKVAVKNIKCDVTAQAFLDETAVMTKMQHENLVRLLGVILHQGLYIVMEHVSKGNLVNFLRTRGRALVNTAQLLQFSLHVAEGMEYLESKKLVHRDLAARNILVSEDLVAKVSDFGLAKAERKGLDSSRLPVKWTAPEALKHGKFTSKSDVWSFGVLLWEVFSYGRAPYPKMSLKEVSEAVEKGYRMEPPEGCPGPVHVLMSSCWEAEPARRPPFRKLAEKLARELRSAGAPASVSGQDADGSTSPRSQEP
Outline: (§1)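 Activity relative to DMSO controls (%) was measured for compound at 10 μM. Assays ran at 10 μM ATP, in duplicate.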

EPHB2 = molecular target: T2, EPHB2 (Homo sapiens, UniProt P29323)
T2 construct: purchased Reaction Biology Corp
T2 sequence (P29323 19-1055): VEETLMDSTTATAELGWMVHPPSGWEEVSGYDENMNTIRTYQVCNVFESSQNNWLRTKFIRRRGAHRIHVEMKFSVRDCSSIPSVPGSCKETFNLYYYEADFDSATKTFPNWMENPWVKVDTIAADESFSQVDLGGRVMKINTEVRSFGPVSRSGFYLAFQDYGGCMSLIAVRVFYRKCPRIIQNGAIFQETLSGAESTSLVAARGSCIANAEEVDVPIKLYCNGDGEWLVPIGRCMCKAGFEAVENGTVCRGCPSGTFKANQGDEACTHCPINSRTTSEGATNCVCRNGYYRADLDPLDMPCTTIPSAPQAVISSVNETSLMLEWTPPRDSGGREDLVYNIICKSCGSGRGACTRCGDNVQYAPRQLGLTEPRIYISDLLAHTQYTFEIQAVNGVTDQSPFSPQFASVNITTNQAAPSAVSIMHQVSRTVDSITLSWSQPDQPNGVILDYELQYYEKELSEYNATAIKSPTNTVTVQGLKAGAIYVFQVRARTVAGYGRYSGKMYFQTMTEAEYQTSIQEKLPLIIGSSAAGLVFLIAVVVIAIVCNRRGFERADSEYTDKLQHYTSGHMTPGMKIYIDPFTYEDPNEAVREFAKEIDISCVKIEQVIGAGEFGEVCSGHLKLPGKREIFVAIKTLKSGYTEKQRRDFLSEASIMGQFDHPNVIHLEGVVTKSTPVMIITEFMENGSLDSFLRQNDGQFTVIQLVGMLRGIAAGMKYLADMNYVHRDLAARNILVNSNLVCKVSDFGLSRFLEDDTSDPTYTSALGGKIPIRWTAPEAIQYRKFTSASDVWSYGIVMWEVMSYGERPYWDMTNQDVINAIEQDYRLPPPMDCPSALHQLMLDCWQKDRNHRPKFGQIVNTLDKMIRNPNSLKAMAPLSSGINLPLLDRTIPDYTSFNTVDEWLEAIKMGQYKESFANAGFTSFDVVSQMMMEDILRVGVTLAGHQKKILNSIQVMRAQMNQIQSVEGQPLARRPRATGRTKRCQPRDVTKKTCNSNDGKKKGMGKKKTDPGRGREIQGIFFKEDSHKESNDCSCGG
Outline: as §1

MELK = molecular target: T3, MELK (Homo sapiens, UniProt Q14680)
T3 construct: purchased Reaction Biology Corp
Outline: as §1

IRAK1 = molecular target: T4, IRAK1 (Homo sapiens, UniProt P51617)
T4 construct: purchased Reaction Biology Corp
Outline: as §1

HCK = molecular target: T5, HCK (Homo sapiens, UniProt P08631)
T5 construct: purchased Reaction Biology Corp
Outline: as §1

LCK = molecular target: T6, LCK (Homo sapiens, UniProt P06239)
T6 construct: purchased Reaction Biology Corp
Outline: as §1

TTBK1 = molecular target: T7, TTBK1 (Homo sapiens, UniProt Q5TCY1)
T7 construct: purchased Reaction Biology Corp
Outline: as §1

PDK1/PDPK1 = molecular target: T8, PDK1/PDPK1 (Homo sapiens, UniProt O15530)
T8 construct: purchased Reaction Biology Corp
T8 sequence (O15530 1-556): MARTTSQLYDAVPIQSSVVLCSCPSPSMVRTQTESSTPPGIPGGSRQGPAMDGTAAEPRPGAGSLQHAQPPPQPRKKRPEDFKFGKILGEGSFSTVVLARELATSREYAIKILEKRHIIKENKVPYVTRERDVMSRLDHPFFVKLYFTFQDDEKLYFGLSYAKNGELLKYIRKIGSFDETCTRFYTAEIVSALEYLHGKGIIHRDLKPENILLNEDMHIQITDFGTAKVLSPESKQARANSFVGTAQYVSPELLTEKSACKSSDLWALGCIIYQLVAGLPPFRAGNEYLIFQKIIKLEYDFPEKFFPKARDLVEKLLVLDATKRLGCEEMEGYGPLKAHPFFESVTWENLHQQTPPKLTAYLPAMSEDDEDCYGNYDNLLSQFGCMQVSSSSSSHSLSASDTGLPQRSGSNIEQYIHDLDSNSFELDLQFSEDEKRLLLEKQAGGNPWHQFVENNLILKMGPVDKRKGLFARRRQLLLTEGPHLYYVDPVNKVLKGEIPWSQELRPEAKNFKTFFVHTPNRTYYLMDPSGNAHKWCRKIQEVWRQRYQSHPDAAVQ
Outline: as §1

PASK = molecular target: T9, PASK (Homo sapiens, UniProt Q96RG2)
T9 construct: purchased Reaction Biology Corp
Outline: as §1

[1] = read-out: % Enzyme Activity (relative to DMSO controls) AVG
[2] = read-out: % Enzyme Activity (relative to DMSO controls) Data 1
[3] = read-out: % Enzyme Activity (relative to DMSO controls) Data 2

T5 sequence (P08631 whole entry): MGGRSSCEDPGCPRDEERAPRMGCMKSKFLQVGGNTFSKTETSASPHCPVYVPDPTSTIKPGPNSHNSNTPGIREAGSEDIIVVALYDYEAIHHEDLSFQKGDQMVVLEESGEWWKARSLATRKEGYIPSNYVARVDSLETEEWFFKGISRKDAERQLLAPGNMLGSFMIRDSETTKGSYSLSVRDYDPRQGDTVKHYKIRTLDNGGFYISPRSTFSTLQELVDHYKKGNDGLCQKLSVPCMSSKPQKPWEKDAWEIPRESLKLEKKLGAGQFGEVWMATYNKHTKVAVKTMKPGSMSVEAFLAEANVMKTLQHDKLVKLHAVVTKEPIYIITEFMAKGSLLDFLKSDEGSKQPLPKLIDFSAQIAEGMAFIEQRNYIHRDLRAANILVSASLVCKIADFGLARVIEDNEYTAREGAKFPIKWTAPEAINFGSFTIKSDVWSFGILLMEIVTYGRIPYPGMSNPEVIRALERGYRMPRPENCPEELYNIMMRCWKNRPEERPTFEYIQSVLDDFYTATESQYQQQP
T4 sequence (P51617 whole entry): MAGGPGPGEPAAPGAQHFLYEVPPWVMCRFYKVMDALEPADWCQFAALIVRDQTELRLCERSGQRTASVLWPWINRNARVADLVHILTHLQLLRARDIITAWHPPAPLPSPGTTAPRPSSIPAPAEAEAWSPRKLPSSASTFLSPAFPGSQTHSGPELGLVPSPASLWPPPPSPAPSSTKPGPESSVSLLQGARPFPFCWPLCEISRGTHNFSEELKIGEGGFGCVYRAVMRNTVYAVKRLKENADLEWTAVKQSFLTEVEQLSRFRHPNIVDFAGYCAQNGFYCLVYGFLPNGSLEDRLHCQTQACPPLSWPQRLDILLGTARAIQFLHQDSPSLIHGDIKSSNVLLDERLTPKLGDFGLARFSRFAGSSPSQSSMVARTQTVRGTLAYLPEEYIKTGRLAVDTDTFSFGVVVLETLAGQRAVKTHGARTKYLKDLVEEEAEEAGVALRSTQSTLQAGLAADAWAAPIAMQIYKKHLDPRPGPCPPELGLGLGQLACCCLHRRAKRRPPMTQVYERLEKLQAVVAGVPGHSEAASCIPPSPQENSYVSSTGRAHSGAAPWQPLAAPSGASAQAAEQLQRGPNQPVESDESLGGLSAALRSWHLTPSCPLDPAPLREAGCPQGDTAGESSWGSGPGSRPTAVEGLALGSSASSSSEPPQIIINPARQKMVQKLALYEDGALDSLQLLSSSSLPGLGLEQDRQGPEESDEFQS
T9 sequence (Q96RG2 whole entry): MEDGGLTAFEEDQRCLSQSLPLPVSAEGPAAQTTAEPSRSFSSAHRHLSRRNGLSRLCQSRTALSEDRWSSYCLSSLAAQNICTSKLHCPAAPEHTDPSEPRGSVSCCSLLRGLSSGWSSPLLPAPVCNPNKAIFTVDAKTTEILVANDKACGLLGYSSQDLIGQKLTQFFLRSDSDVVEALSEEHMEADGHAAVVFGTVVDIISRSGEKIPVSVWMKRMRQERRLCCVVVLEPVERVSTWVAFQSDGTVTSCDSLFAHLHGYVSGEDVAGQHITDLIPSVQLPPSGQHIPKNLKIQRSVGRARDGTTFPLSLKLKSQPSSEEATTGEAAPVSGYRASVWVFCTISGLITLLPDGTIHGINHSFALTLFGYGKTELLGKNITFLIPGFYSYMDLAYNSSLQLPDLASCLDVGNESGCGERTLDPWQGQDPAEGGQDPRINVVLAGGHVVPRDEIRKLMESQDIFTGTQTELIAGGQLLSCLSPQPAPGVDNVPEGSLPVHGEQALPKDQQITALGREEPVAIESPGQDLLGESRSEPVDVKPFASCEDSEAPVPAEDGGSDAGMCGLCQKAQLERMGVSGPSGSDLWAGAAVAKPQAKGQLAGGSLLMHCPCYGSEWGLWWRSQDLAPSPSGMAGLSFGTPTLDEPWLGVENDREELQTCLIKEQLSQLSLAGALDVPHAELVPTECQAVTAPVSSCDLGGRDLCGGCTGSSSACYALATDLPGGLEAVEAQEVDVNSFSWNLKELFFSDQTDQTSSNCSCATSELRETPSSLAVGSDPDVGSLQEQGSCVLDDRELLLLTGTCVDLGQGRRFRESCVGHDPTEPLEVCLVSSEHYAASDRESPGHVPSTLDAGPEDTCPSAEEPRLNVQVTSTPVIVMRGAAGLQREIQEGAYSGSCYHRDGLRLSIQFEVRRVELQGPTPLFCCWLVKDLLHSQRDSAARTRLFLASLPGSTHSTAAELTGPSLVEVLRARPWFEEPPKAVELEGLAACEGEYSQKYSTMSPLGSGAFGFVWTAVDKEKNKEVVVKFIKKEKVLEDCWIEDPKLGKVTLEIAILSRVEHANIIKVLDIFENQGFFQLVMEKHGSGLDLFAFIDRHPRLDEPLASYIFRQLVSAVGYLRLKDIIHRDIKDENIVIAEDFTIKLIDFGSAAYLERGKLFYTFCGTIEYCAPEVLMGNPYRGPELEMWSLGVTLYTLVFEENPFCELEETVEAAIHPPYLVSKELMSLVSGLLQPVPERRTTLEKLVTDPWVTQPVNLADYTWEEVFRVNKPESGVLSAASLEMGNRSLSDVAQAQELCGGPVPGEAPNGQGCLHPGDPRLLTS
T3 sequence (Q14680 whole entry): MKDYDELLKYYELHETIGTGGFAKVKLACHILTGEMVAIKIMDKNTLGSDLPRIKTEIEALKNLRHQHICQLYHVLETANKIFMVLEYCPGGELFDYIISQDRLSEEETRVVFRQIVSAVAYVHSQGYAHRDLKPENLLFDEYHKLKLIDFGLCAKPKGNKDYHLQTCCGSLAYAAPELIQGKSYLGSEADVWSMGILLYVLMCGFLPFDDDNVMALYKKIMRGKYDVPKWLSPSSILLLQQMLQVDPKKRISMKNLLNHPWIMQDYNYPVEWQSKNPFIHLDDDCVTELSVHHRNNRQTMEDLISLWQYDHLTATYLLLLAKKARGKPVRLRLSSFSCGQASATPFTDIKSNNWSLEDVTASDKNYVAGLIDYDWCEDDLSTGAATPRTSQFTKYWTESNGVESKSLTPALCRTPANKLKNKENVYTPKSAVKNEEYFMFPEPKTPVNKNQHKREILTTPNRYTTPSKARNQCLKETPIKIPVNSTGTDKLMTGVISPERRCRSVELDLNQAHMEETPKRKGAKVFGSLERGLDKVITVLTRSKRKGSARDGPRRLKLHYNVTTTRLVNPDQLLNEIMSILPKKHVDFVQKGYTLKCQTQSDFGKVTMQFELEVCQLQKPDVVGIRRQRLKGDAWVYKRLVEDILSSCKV
T6 sequence (P06239 whole entry): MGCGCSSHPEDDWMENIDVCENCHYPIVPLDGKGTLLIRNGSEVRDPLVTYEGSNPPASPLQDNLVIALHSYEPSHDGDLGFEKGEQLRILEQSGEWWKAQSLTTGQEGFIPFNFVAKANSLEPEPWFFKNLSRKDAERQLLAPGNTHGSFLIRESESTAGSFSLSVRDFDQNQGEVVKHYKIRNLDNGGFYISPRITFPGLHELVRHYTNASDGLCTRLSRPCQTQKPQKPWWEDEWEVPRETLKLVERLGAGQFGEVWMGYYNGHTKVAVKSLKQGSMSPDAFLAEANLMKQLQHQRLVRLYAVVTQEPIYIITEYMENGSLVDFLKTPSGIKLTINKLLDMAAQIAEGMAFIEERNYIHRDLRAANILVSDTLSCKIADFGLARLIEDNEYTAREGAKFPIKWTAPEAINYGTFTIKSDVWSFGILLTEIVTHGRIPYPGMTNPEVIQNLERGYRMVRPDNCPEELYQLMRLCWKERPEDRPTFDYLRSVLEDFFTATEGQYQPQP
T7 sequence (Q5TCY1 whole entry): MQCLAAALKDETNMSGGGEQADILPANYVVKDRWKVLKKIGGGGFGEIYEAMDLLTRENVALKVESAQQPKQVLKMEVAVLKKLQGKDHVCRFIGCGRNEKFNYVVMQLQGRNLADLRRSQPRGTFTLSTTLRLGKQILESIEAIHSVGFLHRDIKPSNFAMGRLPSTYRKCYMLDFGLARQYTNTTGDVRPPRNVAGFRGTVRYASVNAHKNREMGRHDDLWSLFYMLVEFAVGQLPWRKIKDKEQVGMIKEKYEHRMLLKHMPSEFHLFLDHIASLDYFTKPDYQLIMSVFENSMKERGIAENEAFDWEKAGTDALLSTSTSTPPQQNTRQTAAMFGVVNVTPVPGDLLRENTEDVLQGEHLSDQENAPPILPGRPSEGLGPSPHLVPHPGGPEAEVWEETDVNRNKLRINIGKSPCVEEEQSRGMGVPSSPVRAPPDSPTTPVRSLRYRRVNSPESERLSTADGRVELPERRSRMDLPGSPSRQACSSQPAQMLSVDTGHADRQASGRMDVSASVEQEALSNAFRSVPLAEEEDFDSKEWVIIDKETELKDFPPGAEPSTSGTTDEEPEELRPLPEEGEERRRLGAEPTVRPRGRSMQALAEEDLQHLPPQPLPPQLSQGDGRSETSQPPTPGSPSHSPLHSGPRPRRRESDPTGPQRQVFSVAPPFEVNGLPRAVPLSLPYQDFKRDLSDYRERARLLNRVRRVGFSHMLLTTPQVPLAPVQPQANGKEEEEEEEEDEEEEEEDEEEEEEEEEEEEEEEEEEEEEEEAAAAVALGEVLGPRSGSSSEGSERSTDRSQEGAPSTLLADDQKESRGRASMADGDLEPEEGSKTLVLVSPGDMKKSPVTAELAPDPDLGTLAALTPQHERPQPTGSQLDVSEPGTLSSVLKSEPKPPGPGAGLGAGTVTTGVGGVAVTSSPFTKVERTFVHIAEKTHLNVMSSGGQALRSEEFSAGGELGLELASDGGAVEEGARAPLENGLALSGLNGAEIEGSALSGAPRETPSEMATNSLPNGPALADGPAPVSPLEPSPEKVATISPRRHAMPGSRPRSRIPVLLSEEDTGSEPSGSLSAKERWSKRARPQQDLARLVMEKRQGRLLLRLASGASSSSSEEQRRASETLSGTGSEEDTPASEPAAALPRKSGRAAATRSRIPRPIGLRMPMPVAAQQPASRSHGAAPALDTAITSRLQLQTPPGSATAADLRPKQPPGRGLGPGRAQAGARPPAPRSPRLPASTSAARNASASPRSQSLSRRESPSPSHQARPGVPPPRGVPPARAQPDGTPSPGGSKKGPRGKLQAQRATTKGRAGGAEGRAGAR

## CC(C)(C)C(=O)N1N=CC[C@H]1c1ccccc1 [GSK′963]
CTK/MATK; [1]
  remaining activity at 10 µM: 93%
CTK/MATK; [2]
  remaining activity at 10 µM: 91.5%
CTK/MATK; [3]
  remaining activity at 10 µM: 94.5%
EPHB2; [1]
  remaining activity at 10 µM: 105%
EPHB2; [2]
  remaining activity at 10 µM: 108%
EPHB2; [3]
  remaining activity at 10 µM: 102%
MELK; [1]
  remaining activity at 10 µM: 104%
MELK; [2]
  remaining activity at 10 µM: 105%
MELK; [3]
  remaining activity at 10 µM: 103%
IRAK1; [1]
  remaining activity at 10 µM: 115%
IRAK1; [2]
  remaining activity at 10 µM: 114%
IRAK1; [3]
  remaining activity at 10 µM: 116%
HCK; [1]
  remaining activity at 10 µM: 96.5%
HCK; [2]
  remaining activity at 10 µM: 95.5%
HCK; [3]
  remaining activity at 10 µM: 97.6%
LCK; [1]
  remaining activity at 10 µM: 96.4%
LCK; [2]
  remaining activity at 10 µM: 96.1%
LCK; [3]
  remaining activity at 10 µM: 96.7%
TTBK1; [1]
  remaining activity at 10 µM: 110%
TTBK1; [2]
  remaining activity at 10 µM: 109%
TTBK1; [3]
  remaining activity at 10 µM: 111%
PDK1/PDPK1; [1]
  remaining activity at 10 µM: 109%
PDK1/PDPK1; [2]
  remaining activity at 10 µM: 108%
PDK1/PDPK1; [3]
  remaining activity at 10 µM: 110%
PASK; [1]
  remaining activity at 10 µM: 102%
PASK; [2]
  remaining activity at 10 µM: 103%
PASK; [3]
  remaining activity at 10 µM: 101%
